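Cultured in 96-well plates, cells were exposed to test compound for 48 hours across five concentrations. TGI: total growth inhibition.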
Assays:
Assay in all cases: NCI tumour cell line growth inhibition, 48 h
DMS 273 small cell lung = tested on: DMS 273 small cell lung
DMS 114 small cell lung = tested on: DMS 114 small cell lung
HOP-18 NSCLC = tested on: HOP-18 NSCLC
KM20L2 colon = tested on: KM20L2 colon
M19-MEL melanoma = tested on: M19-MEL melanoma
DLD-1 colon = tested on: DLD-1 colon
XF 498 CNS = tested on: XF 498 CNS
P388 leukemia = tested on: P388 leukemia
SN12K1 renal = tested on: SN12K1 renal
P388/ADR leukemia = tested on: P388/ADR leukemia
RXF-631 renal = tested on: RXF-631 renal

SMILES | TGI (DMS 273 small cell lung) [µM] | TGI (DMS 114 small cell lung) [µM] | TGI (HOP-18 NSCLC) [µM] | TGI (KM20L2 colon) [µM] | TGI (M19-MEL melanoma) [µM] | TGI (DLD-1 colon) [µM] | TGI (XF 498 CNS) [µM] | TGI (P388 leukemia) [µM] | TGI (SN12K1 renal) [µM] | TGI (P388/ADR leukemia) [µM] | TGI (RXF-631 renal) [µM]
COC(OC)c1cccc2c1C1(O)CCC3(CC21)OCCCCO3 (configuration not stated) | > 100 | > 100 | > 100 | > 100 | > 100 | > 100 |  |  |  |  | 
NC(=O)CCC(NCc1c2ccccc2[n+]([O-])c2ccccc12)C(=O)O (configuration not stated) | > 100 | > 100 | > 100 | > 100 | > 100 | > 100 |  |  |  |  | 
Cc1ccc(C(=O)C(C)N)cc1 (configuration not stated) | > 100 | > 100 | > 100 | > 100 |  | > 100 | > 100 |  |  |  | 
O=P(O)(O)C(CSc1ccccc1)P(=O)(O)O | > 100 | > 100 | > 100 | > 100 | > 100 | > 100 | > 100 | > 100 | > 100 | > 100 | 
CC(=O)[O-].CC(=O)[O-].O=C(N/N=C/c1cc(Cl)cc(Cl)c1[OH2+])c1ccncc1.[Co+2] |  |  |  | > 100 |  |  |  |  |  |  | 
CC(=O)c1ccc(Oc2ccc(/C(C)=N\N=C(N)N)cc2)cc1 |  | 4.98 |  | 3.43 |  | 14.3 |  |  |  |  | 
CC1(O)CC2C(CC1SCCO)C2(C)C (configuration not stated) | > 100 | > 100 | > 100 |  | > 100 | > 100 | > 100 |  |  |  | 
C=C1c2c(cc3c(c2O)c(=O)c2ccccc2n3C)OC1(C)C | > 100 | > 100 | > 100 | > 100 | > 100 | > 100 | 57.2 |  |  |  | > 100
O=C(NO)c1coc2ccccc2c1=O | > 100 | > 100 |  | > 100 |  | > 100 |  |  |  |  | > 100
CC(C)(C)[Si](C)(C)OCCCC#CCO | > 100 | > 100 |  | > 100 |  | > 100 | > 100 |  |  |  | > 100
Cc1c(-c2cc3n(n2)C(c2cccs2)C(C#N)=C(c2ccccc2)N3)c(=O)n(-c2ccccc2)n1C (configuration not stated) | > 100 | > 100 | > 100 | > 31.6 | > 100 | > 100 | > 100 | > 100 | > 100 | > 100 | 
